BindingDB's records for doi:10.1016/s0960-894x(99)00012-8 (Nippon Steel, 1999)

What was measured:
[1] = Inhibitory activity against porcine pancreatic elastase (PPE)
[2] = Inhibitory activity against bovine pancreatic alpha-chymotrypsin (alpha-CT)
[3] = Inhibitory activity against porcine pancreatic trypsin (TRP)
[4] = as above; remark: listed apart in the source

IC50 [1] [µM]	IC50 [2] [µM]	IC50 [3] [µM]	IC50 [4] [µM]	SMILES
0.034	0.0053	2.9		CCCCC(NC(=O)c1ccccc1)C(C)(C)C(=O)OC(=O)C(C)(C)C(CCCC)NC(=O)c1ccccc1 (centres undefined) [1,1-dimethyl-2-phenylcarboxamidoheptanoic anhydride]
	0.049	8.8		CCCC(NC(=O)c1ccccc1)C(C)(C)C(=O)OC(=O)C(C)(C)C(CCC)NC(=O)c1ccccc1 (centres undefined) [1,1-dimethyl-2-phenylcarboxamidohexanoic anhydride]
0.18	0.044	3.3		CCCCCCC(NC(=O)c1ccccc1)C(C)(C)C(=O)OC(=O)C(C)(C)C(CCCCCC)NC(=O)c1ccccc1 (centres undefined) [1,1-dimethyl-2-phenylcarboxamidononanoic anhydride]
0.061	0.031	3.9		CCCCCC(NC(=O)c1ccccc1)C(C)(C)C(=O)OC(=O)C(C)(C)C(CCCCC)NC(=O)c1ccccc1 (centres undefined) [1,1-dimethyl-2-phenylcarboxamidooctanoic anhydride]
0.21	0.072	2.2		CCC(NC(=O)c1ccccc1)C(C)(C)C(=O)OC(=O)C(C)(C)C(CC)NC(=O)c1ccccc1 (centres undefined) [1,1-dimethyl-2-phenylcarboxamidopentanoic anhydride]
2.6	0.14	0.99		CC(C)(CNC(=O)c1ccccc1)C(=O)OC(=O)C(C)(C)CNC(=O)c1ccccc1 [1,1-dimethyl-2-phenylcarboxamidopropanoic anhydride]
0.055	0.81	18		CCCCCC(NC(=O)CCC)C(C)(C)C(=O)OC(=O)C(C)(C)C(CCCCC)NC(=O)CCC (centres undefined) [1,1-dimethyl-2-propylcarboxamidooctanoic anhydride]
0.064	0.018	2.7		CC(C)(C(=O)OC(=O)C(C)(C)C(CCc1ccccc1)NC(=O)c1ccccc1)C(CCc1ccccc1)NC(=O)c1ccccc1 (centres undefined) [1,1-dimethyl-4-phenyl-2-phenylcarboxamidopentanoic anhydride]
		1.2		CCCC(=O)NC(CCc1ccccc1)C(C)(C)C(=O)OC(=O)C(C)(C)C(CCc1ccccc1)NC(=O)CCC (centres undefined) [1,1-dimethyl-4-phenyl-2-propylcarboxamidopentanoic anhydride]
1.1	0.25		8.2	CC(C)(C(=O)OC(=O)C(C)(C)C(NC(=O)c1ccc(C#N)cc1)c1ccccc1Cl)C(NC(=O)c1ccc(C#N)cc1)c1ccccc1Cl (centres undefined) [2-(2-chlorophenyl)-2-(4-cyanophenylcarboxamido)-1,1-dimethylpropanoic anhydride]
2.1	0.19		18	Cc1ccccc1C(NC(=O)c1ccc(C#N)cc1)C(C)(C)C(=O)OC(=O)C(C)(C)C(NC(=O)c1ccc(C#N)cc1)c1ccccc1C (centres undefined) [2-(4-cyanophenylcarboxamido)-1,1-dimethyl-2-(2-methylphenyl)propanoic anhydride]
0.21	0.015		1.8	CC(C)(C(=O)OC(=O)C(C)(C)C(NC(=O)c1ccc(C#N)cc1)c1ccccc1)C(NC(=O)c1ccc(C#N)cc1)c1ccccc1 (centres undefined) [2-(4-cyanophenylcarboxamido)-1,1-dimethyl-2-phenylpropanoic anhydride]
0.18	0.22	1.6		CC(C)(C(=O)OC(=O)C(C)(C)C(NC(=O)c1ccc(C#N)cc1)C1CC=CCC1)C(NC(=O)c1ccc(C#N)cc1)C1CC=CCC1 (centres undefined) [2-(4-cyanophenylcarboxamido)-2-cyclohex-3-enyl-1,1-dimethylpropanoic anhydride]
0.036	0.0021		0.3	CC(C)(C(=O)OC(=O)C(C)(C)C(CCc1ccccc1)NC(=O)c1ccc(C#N)cc1)C(CCc1ccccc1)NC(=O)c1ccc(C#N)cc1 (centres undefined) [[2,2-dimethyl-3-(N-(4-cyanobenzoyl)aminoi)-5-phenylpentanoic anhydride]]
